pIC50: −log10 of the molar value. Read-outs that look alike come from different tables or passages of the source.
Molecular target: T1, hmGluR1 receptor (Homo sapiens, UniProt Q13255)
T1 construct: expressed in transfected cells
Experiment: IC50 determination: intracellular calcium mobilization (FLIPR) upon Quisqualate stimulation in CHO cells stably expressing hmGluR1
Assay type: cell-based
Conditions: against Quisqualate 1 μM (EC80)
Method: A CHO cell line stably expressing hmGluR1 receptor was established. One day prior to assay, cells were split in growth media at concentration of 50,000 cells/well in a volume of 100 μl and seeded into black clear-bottom 96-well plates. After two to six hours, when cells were well attached to the plate, growth medium was replaced with assay medium (100 μL) consisting of DMEM high glucose, supplemented with GPT (1 U/mL) and Sodium pyruvate, 1 mM. Following overnight incubation, medium was discarded and cells were loaded for 2 h with dye from the Calcium 3 Assay Reagent Kit (Molecular Devices, # R8033), prepared according to manufacturers' instructions. […] Test compounds were added 10 minutes before Quisqualate.

[1] = class symbols, read-out: mGIuR 1 IC50
[2] = FLIPR calcium mobilization, read-out: IC50 Class
[3] = FLIPR calcium mobilization, read-out: mGluR1 IC50

T1 sequence (Q13255 19-1194): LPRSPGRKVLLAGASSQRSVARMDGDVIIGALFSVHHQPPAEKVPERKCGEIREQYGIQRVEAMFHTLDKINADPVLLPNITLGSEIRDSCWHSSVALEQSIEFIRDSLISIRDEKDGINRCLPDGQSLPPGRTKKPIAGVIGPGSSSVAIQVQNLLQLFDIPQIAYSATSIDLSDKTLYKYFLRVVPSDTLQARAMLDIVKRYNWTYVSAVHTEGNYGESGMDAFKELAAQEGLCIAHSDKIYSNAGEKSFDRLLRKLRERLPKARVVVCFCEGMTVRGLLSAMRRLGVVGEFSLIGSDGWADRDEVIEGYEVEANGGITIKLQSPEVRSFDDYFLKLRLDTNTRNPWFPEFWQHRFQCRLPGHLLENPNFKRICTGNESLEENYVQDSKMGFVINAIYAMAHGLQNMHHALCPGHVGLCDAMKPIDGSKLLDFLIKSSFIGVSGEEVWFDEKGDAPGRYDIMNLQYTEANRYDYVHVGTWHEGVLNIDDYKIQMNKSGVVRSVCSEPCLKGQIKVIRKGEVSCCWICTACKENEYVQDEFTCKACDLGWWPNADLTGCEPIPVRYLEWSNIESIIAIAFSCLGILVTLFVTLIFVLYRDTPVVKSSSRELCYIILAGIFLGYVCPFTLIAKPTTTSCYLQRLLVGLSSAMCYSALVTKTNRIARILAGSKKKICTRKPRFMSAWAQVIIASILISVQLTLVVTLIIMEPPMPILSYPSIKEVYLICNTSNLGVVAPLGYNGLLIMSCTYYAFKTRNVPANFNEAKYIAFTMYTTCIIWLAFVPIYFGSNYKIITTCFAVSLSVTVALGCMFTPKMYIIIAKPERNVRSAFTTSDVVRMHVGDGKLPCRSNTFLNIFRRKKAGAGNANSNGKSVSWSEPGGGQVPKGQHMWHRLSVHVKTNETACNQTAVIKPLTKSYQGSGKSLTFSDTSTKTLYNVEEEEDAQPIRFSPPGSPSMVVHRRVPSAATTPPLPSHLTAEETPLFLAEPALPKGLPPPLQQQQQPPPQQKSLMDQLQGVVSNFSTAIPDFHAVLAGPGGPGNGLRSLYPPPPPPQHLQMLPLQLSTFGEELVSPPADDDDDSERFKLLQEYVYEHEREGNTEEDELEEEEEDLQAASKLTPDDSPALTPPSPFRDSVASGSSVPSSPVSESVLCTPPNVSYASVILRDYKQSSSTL

Compound | pIC50 [1] | pIC50 [2] | further results
C#CCOc1ccnc2sc3c(=O)n(-c4ccc(C)cc4)cnc3c12 [66A] | > 7.30 | – | –
COc1ccc(Nc2ncnc3sc4c(=O)n(-c5ccc(Cl)cc5)cnc4c23)cc1 [95GH] | – | 6.82 to 7.30 | –
CC(C)c1ccnc2sc3c(=O)n(-c4ccc(Cl)cc4)cnc3c12 [29J] | – | > 7.30 | –
Cc1ccc(Nn2cnc3c(sc4nccc(N(C)C)c43)c2=O)cc1 [60C] | > 7.30 | – | –
COc1ccc(-n2cnc3c(sc4nccc(NC5CC5)c43)c2=O)cc1F [28HE] | – | > 7.30 | –
COCCNc1ncnc2sc3c(=O)n(-c4ccc(C)cc4)cnc3c12 [95DJ] | – | > 7.30 | –
C=C(C)CNc1ncnc2sc3c(=O)n(C4CCCC4)cnc3c12 [95FL] | – | > 7.30 | –
CCN(C)c1ncnc2sc3c(=O)n(-c4cccnc4)cnc3c12 [95M] | 6.82 to 7.30 | – | –
CNc1ncnc2sc3c(=O)n(-c4ccc(OC)cc4C)cnc3c12 [95BH] | – | > 7.30 | –
CN(C)c1cccc2sc3c(=O)n(-c4ccccc4Cl)cnc3c12 [103G] | – | < 6.00 | –
COc1ccc(-n2cnc3c(sc4nc(C)cc(N(C)C)c43)c2=O)cc1 [7CJ] | 6.82 to 7.30 | – | –
COc1ccnc2sc3c(=O)n(-c4ccc(Cl)cc4F)cnc3c12 [28FT] | – | 6.00 to 6.82 | –
O=c1c2sc3nccc(-n4cccn4)c3c2ncn1C1CCCCC1 [30B] | < 6.00 | – | –
COc1ccc(-n2cnc3c(sc4nc(C)nc(N)c43)c2=O)cc1 [95EU] | – | 6.00 to 6.82 | –
O=c1c2sc3nccc(NCCCO)c3c2ncn1-c1ccc(F)cc1 [28GP] | – | > 7.30 | –
CCNc1ncnc2sc3c(=O)n(-c4ccc5scnc5c4)cnc3c12 [95BJ] | – | > 7.30 | –
O=c1c2sc3ncnc(Nc4ccccc4)c3c2ncn1-c1ccc2c(c1)OCO2 [95GG] | – | < 6.00 | –
CN(C)c1ccnc2sc3c(=O)n(C4CCCC4)cnc3c12 [7W] | > 7.30 | – | –
CCNc1ccnc2sc3c(=O)n(-c4ccc(OC)cc4)cnc3c12 [131A] | > 7.30 | – | –
CNc1ncnc2sc3c(=O)n(-c4ccc(F)cc4)cnc3c12 [95DC] | – | > 7.30 | –
O=c1c2sc3nccc(N4CCC(O)CC4)c3c2ncn1C1CCCCC1 [28AF] | < 6.00 | – | –
CN(C)c1cc[n+]([O-])c2sc3c(=O)n(-c4ccc(Cl)cc4)cnc3c12 [12B] | 6.82 to 7.30 | – | –
O=c1c2sc3nccc(N4CCC[C@H]4CO)c3c2ncn1-c1ccc(Cl)cc1 [28GM] | – | < 6.00 | –
CCOC(=O)c1cnc2sc3c(=O)n(-c4ccc(C)cc4)cnc3c2c1 [144A] | 6.82 to 7.30 | – | –

Compound | pIC50 [1] | pIC50 [2] | further results
COc1ccc(-n2cnc3c(sc4cncc(N(C)C)c43)c2=O)cc1F [37G] | 6.00 to 6.82 | – | –
O=c1c2sc3ncccc3c2ncn1-c1ccccc1 [compound 11] | < 6.00 | – | –
CCN(C)c1ncnc2sc3c(=O)n(-c4ccc5c(c4)OCC5)cnc3c12 [95K] | > 7.30 | – | –
C#CCNc1nc(C)nc2sc3c(=O)n(-c4ccc(OC)cc4)cnc3c12 [95FM] | – | 6.82 to 7.30 | –
Cc1ccc(-n2cnc3c(sc4nccc(C(=O)O)c43)c2=O)cc1 [compound 77] | < 6.00 | – | –
C#CCN(C)c1ccnc2sc3c(=O)n(-c4ccc(Br)cc4)cnc3c12 [28DV] | – | > 7.30 | pIC50 [3]: 8.73
CC(C)(O)c1ccnc2sc3c(=O)n(-c4ccc(Cl)cc4)cnc3c12 [compound 186] | – | < 6.00 | –
Cc1ccc(-n2cnc3c(sc4nccc(N(C)C)c43)c2=O)cc1I [7DY] | 6.82 to 7.30 | – | –
Cc1ccc(-n2cnc3c(sc4nccc(N5CC(O)C5)c43)c2=O)cc1 [28DH] | – | 6.00 to 6.82 | –
Cc1ccc(-n2cnc3c(sc4ncnc(Nc5ccccc5)c43)c2=O)cc1 [95FW] | – | < 6.00 | –
CC(C)c1ccc(-n2cnc3c(sc4nccc(N(C)C)c43)c2=O)cc1 [7BA] | 6.00 to 6.82 | – | –
Cc1ccc(-n2cnc3c(sc4nc(N5CCN(C)CC5)cc(N(C)C)c43)c2=O)cc1 [59A] | < 6.00 | – | –
C#CCOc1ncnc2sc3c(=O)n(-c4ccc(C)cc4)cnc3c12 [66M] | – | 6.82 to 7.30 | –
COc1ccc(-n2cnc3c(sc4ncc(F)c(N(C)C)c43)c2=O)cc1 [compound 192] | – | > 7.30 | –
CN(C)c1ccnc2sc3c(=O)n(CC4CCCCC4)cnc3c12 [15C] | > 7.30 | – | –
CNc1ccnc2sc3c(=O)n(-c4cccc(Br)c4)cnc3c12 [28CS] | – | 6.82 to 7.30 | –
COc1cc(O)nc2sc3c(=O)n(C4CCCCC4)cnc3c12 [compound 80] | < 6.00 | – | –
CN(C)c1cncc2sc3c(=O)n(N4CCCCC4)cnc3c12 [60L] | 6.00 to 6.82 | – | –
C=C(C)CNc1ncnc2sc3c(=O)n(-c4ccc(F)cc4)cnc3c12 [95FI] | – | > 7.30 | –
COc1ccc(-n2cnc3c(sc4nccc(NCC(F)(F)F)c43)c2=O)c(F)c1 [28BM] | – | 6.82 to 7.30 | –
Cc1ccc(-n2cnc3c(sc4nccc(NCCCO)c43)c2=O)cc1 [28CX] | – | > 7.30 | –
CCCNc1ncnc2sc3c(=O)n(-c4ccc(C)cc4)cnc3c12 [95FG] | – | > 7.30 | –
CN(C)c1ccnc2sc3c(=O)n(-c4ccc(Cl)cc4I)cnc3c12 [7N] | 6.00 to 6.82 | – | –
CCOC(=O)c1cc2c(nc1C(F)(F)F)sc1c(=O)n(-c3ccc(C)cc3)cnc12 [144C] | – | < 6.00 | –

Compound | pIC50 [1] | pIC50 [2] | further results
CC(O)c1ccnc2sc3c(=O)n(-c4ccc(Cl)cc4)cnc3c12 (stereo not shown) [compound 185] | – | 6.82 to 7.30 | –
Cc1ccc(-n2cnc3c(sc4nccc(OCCO)c43)c2=O)cc1 [66E] | < 6.00 | – | –
O=c1c2sc3ncnc(NC4CC4)c3c2ncn1-c1ccc(Br)cc1F [95AX] | – | 6.82 to 7.30 | –
Cc1cc(-n2cnc3c(sc4nccc(N(C)C)c43)c2=O)ccc1I [7EA] | > 7.30 | – | –
CN(C)c1ccnc2sc3c(=O)n(-c4ccc(OS(C)(=O)=O)cc4)cnc3c12 [compound 204] | – | 6.82 to 7.30 | –
Cc1ccc(-n2cnc3c(sc4nccc(NCC5CCCO5)c43)c2=O)cc1 (stereo not shown) [28ET] | – | 6.82 to 7.30 | –
CCNc1ccnc2sc3c(=O)n(-c4ccc5c(c4)CCO5)cnc3c12 [28BQ] | – | > 7.30 | pIC50 [3]: 8.80
CN(C)c1cncc2sc3c(=O)n(-c4ccc(Cl)cc4)cnc3c12 [37E] | > 7.30 | – | –
O=c1c2sc3nccc(NCCO)c3c2ncn1-c1ccc(Br)cc1 [28GA] | – | > 7.30 | –
COc1ccnc2sc3c(=O)n(-c4ccc5scnc5c4)cnc3c12 [25D] | 6.00 to 6.82 | – | –
Cc1nn(C)c(C)c1-n1cnc2c(sc3nccc(N(C)C)c32)c1=O [15AC] | < 6.00 | – | –
CC(C)Nc1ccnc2sc3c(=O)n(C4CCCCC4)cnc3c12 [28AH] | 6.00 to 6.82 | – | –
C=C(C)CNc1ccnc2sc3c(=O)n(-c4ccc(Cl)cc4)cnc3c12 [28FD] | – | > 7.30 | –
CN(C)c1ccnc2sc3c(=O)n(C4CCC5(CC4)OCCO5)cnc3c12 [compound 19] | 6.00 to 6.82 | – | –
COc1ccc(-n2cnc3c(sc4nccc(NCC(F)(F)F)c43)c2=O)cc1 [28AW] | > 7.30 | – | –
CC(O)CCNc1ccnc2sc3c(=O)n(-c4ccc(F)cc4)cnc3c12 (stereo not shown) [28HN] | – | > 7.30 | –
CN(C)c1ccc(F)c2sc3c(=O)n(C4CCCCC4)cnc3c12 [compound 104] | < 6.00 | – | –
O=c1c2sc3nccc(N4CCC4)c3c2ncn1C1CCCCC1 [28V] | 6.00 to 6.82 | – | –
CC(=O)N1CCN(c2ccnc3sc4c(=O)n(C5CCCCC5)cnc4c23)CC1 [compound 62] | < 6.00 | – | –
CN(C)c1c(C#N)ncc2sc3c(=O)n(-c4ccc(Cl)cc4)cnc3c12 [compound 55] | 6.82 to 7.30 | – | –
COc1ccc(-n2cnc3c(sc4nc(Cl)cc(NC5CC5)c43)c2=O)cc1 [57D] | – | 6.00 to 6.82 | –
CN(C)c1ccnc2sc3c(=O)n(-c4ccc5c(c4)CCC5)cnc3c12 [7BI] | > 7.30 | – | –
CNc1ccnc2sc3c(=O)n(C4CCCCC4)cnc3c12 [28X] | > 7.30 | – | –
COc1ccc(-n2cnc3c(sc4ncnc(OC)c43)c2=O)cc1 [95GO] | – | < 6.00 | –

Compound | pIC50 [1] | pIC50 [2] | further results
CN(C)c1ncnc2sc3c(=O)n(-c4ccc(OC(F)F)cc4)cnc3c12 [95Q] | > 7.30 | – | –
CCN(C)c1ccnc2sc3c(=O)n(-c4ccc(F)cc4)cnc3c12 [28ID] | – | > 7.30 | –
C=CCN(C)c1ccnc2sc3c(=O)n(-c4ccc(Cl)cc4)cnc3c12 [28DZ] | – | > 7.30 | pIC50 [3]: 8.97
CN(C)c1ccc(C#N)c2sc3c(=O)n(C4CCCCC4)cnc3c12 [compound 105] | < 6.00 | – | –
CCNc1ncnc2sc3c(=O)n(-c4ccc(C)nc4)cnc3c12 [95AB] | 6.00 to 6.82 | – | –
CNc1ccnc2sc3c(=O)n(-c4ccc(OC)cc4F)cnc3c12 [28BK] | – | > 7.30 | –
CCNc1ccnc2sc3c(=O)n(-c4ccc5ncsc5c4)cnc3c12 [131C] | > 7.30 | – | –
C=C(C)CNc1ccnc2sc3c(=O)n(-c4ccc(Br)cc4)cnc3c12 [28FC] | – | > 7.30 | –
COc1ccnc2sc3c(=O)n(-c4ccc5c(c4)CCO5)cnc3c12 [25F] | – | 6.00 to 6.82 | –
Cc1ccc(-n2cnc3c(sc4ncc(C(=O)N(C)C)cc43)c2=O)cc1 [205A] | – | < 6.00 | –
O=c1c2sc3ncnc(Nc4ccccc4)c3c2ncn1-c1ccc(F)cc1 [95FZ] | – | < 6.00 | –
CN(C)c1ccnc2sc3c(=O)n(-c4ccc5[nH]ccc5c4)cnc3c12 [7AM] | > 7.30 | – | –
C#CCN(C)c1ccnc2sc3c(=O)n(-c4ccc(OC)cc4)cnc3c12 [28DU] | – | > 7.30 | –
C=CCNc1ccnc2sc3c(=O)n(-c4ccc(Cl)cc4)cnc3c12 [28DY] | – | 6.82 to 7.30 | –
CN(c1ncnc2sc3c(=O)n(-c4ccc(Cl)cc4)cnc3c12)C1CC1 [95DU] | – | > 7.30 | –
CCc1ccnc2sc3c(=O)n(C4CCCCC4)cnc3c12 [29C] | 6.82 to 7.30 | – | –
O=c1c2sc3nccc(NCCO)c3c2ncn1-c1ccc(F)cc1 [28GC] | – | 6.82 to 7.30 | –
Cc1ccc(-n2cnc3c(sc4nc(N5CCNCC5)cc(N(C)C)c43)c2=O)cc1 [59B] | < 6.00 | – | –
C#CCNc1ncnc2sc3c(=O)n(-c4ccc(Cl)cc4)cnc3c12 [95EG] | – | > 7.30 | –
O=c1c2sc3nccc(OCCO)c3c2ncn1-c1ccc(Cl)cc1 [66H] | – | < 6.00 | –
CC(C)Nc1ccnc2sc3c(=O)n(-c4ccc(F)cc4)cnc3c12 [28GX] | – | 6.00 to 6.82 | –
C=CCn1cnc2c(sc3nccc(N(C)C)c32)c1=O [7AB] | 6.00 to 6.82 | – | –
